Series [1] is described as follows: Pharmacokinetic studies (oral and intravenous dosing) in jugular vein cannulated rats. The note with it: for AUC(0-inf): AUC0-inf; for bioavailability: F0-inf (absolute oral bioavailability). The protocol: Absolute oral bioavailability and other pharmacokinetic parameters were determined in a series of two-period, crossover studies, where the cannabinoids were administered intravenously in the first period, and orally in the second. Both jugular veins were cannulated (3 Fr polyurethane catheter, Instech Laboratories, Plymouth Meeting, USA). One catheter was used for intravenous dosing, and the second one was used for repetitive blood sampling in order to avoid sampling cannula contamination with highly concentrated intravenous drug solution. The anesthesia was performed using a rapid inhalational induction with isoflurane (IsoFlo, Zoetis, Czech Republic) followed by intramuscular injection of ketamine 100 mg/kg (Narkamon, Bioveta a.s., Czech Republic) and xylazine 5 mg/kg (Rometar, Bioveta a.s., Czech Republic). After a three-day recovery period, the rats were intravenously dosed with the particular cannabinoid (1 mg of CBD, 1.5 mg of the other three cannabinoids in the form of nanoemulsion, volume 100 μL). Systemic blood (100 μL) was drawn at 5, 15, and 30 min and at 1, 2, 4, 6, 8, 10, and 24 h(s) postdose. After a two-day wash-out period, the dosing via oral gavage followed (10 mg of CBD, 15 mg of the other three cannabinoids in the form of nanoemulsion, volume 1 mL). Systemic blood (100 μL) was drawn at 0 (predose), 0.5, 1, 2, 3, 4, 5, 6, 8, 10, and 24 h(s). Blood samples were centrifuged (4500 rpm for 10 min) and serum was extracted and stored in −80 °C until analysis. The laboratory was unaware of animal assignment to particular experimental groups (laboratory blinding).
Serum and lymph concentrations in all studies were dose-normalized to 1 mg/kg prior to further calculations. AUC values were determined using linear trapezoidal rule. Exact actual sampling times were used for this purpose. Scheduled sampling times were used for mean concentration plotting in the graphs. PK-solver add-on for MS Excel was used for all basic pharmacokinetic calculations. GraphPad Prism version 10.2.2 (GraphPad Software, San Diego, CA, USA) was used for all statistical analyses and graph plotting. Unpaired Student’s t test was used to compare pharmacokinetic and lymphatic transport parameters between the experimental groups. Level of significance was set to p < 0.05.
Lymphatic transport parameters were defined and calculated as previously described. , Briefly, absolute bioavailability via lymph (FAL) was defined as percentage of administered drug dose absorbed into the lymph. It was determined directly from lymph volume and drug concentration in lymph duct cannulated rats. Absolute bioavailability via portal vein (FAP) was analogically defined as percentage of administered drug dose reaching the systemic circulation after direct absorption into blood. It was calculated using equation 1 FAP=AUCent/AUCiv where AUCent is the area under the dose-normalized blood concentration–time curve after enteral dosing in lymph duct cannulated (i.e., lymph deprived) rats and AUCiv is the respective parameter in a separate intravenously dosed group. Total absolute bioavailability (F) in lymph duct cannulated rats was calculated as a sum of FAL and FAP. In normal animals with no lymph duct cannulation, F was calculated using standard formula for oral bioavailability: 2 F=AUCpo/AUCiv Relative bioavailability via lymph (FRL) was defined as the percentage of systemically available drug that was absorbed via lymph. It was calculated using the equation 3 FRL=FAL/F

Series [2] is classed as physicochemical. The conditions noted are these: final nanoemulsion. How it is done:
To test pharmacokinetic parameters for various cannabinoids, the self-emulsifying drug delivery system (SEDDS) was selected due to its facile preparation and as it has shown an enhanced absorption profile for CBD.1 However, prior to administration the oil phase was mixed with water forming nanoemulsion to decrease viscosity and facilitate application to rats. […]
formulation is in the paper referred to as nanoemulsion.
In general, the nanoemulsion was prepared as follows. First, the oil phase containing Propylene glycol monocaprylate (PGMC), surfactant Kolliphor EL (CR-EL), co-surfactant and cannabinoid was prepared and thoroughly homogenized. As co-surfactants, we tested three compounds:
Diethylene glycol monoethyl ether (TRSC) or Ethyl alcohol (ETOH) or Propylene glycol (PRGL).
Next, four parts of water with respect to one part of oil (by weight) were added dropwise to the oil mixture at mild stirring. The stability of prepared nanoemulsions (initially without cannabinoids) was evaluated using dynamic light scattering (LS Instruments, Switzerland). […] and unstable samples, characterized by very high turbidity or phase separation, respectively, were not further analyzed. Optimization results are shown in the form of ternary diagrams for three tested co-surfactants (TRSC, ETOH, PRGL) in Fig. S1.
According to the manufacturer, CBD is most soluble in PGMC among other products.2 High solubility was also expected for other cannabinoids, thus PGMC was chosen as a suitable oil-phase base for nanoemulsion formulation in this study. Next, CR-EL was selected as a surfactant capable of forming nanoemulsions with PGMC in a wide range of concentrations (based on previous non-published experiments). To optimize the composition, stability and the size dependence of various emulsion mixtures were investigated for systems containing the aforementioned components and selected co-surfactants – TRSC, ETOH and PRGL (without cannabinoids). According to the […]
with desirable sizes (Fig. S1). Furthermore, TRSC is a proven skin permeation enhancer and solubilizer. Moreover, as shown by Franceschinis et al., TRSC acted as an excellent absorption […]
enhancer for 4,6,4′trimethylangelicin during oral administration. […]
co-surfactant and solubilizer for the final formulation tested in the pharmacokinetic study.
The final composition of nanoemulsion was chosen based on the compromise between the cannabinoids' loading capacity and the used surfactant amount. The final formulation contained 50wt.% of CR-EL, 30wt.% of TRSC and 20wt.% of PGMC. Long-term stability for the optimized formulation was tested for two cannabinoid concentrations – 15 mg/ml and 30 mg/ml. Results are shown in Tab. S1. The size was below 30 nm even after 30 days for all cannabinoids at 15mg/ml […]
Although all formulations were stable over time and to avoid any colloid instability and cannabinoid decomposition, the water phase was added to the oil phase directly before application in pharmacokinetic study.

Where [3] appears, read: rat, in vivo, iv, 1.5 mg, nanoemulsion, rats, serum, dose-normalized to 1 mg/kg, mean ± SD.
Setting [4] is: rat, in vivo, iv, 1.5 mg, T1/2, nanoemulsion, rats, mean ± SD.
Where [5] appears, read: rat, in vivo, po, nanoemulsion, rats, serum, dose-normalized to 1 mg/kg, mean ± SD.
Setting [6] is: rat, in vivo, po, oil solution, rats, serum, dose-normalized to 1 mg/kg, mean ± SD.
Where [7] appears, read: rat, in vivo, po, nanoemulsion, rats, 10 mg CBD, 15 mg others, serum, dose-normalized to 1 mg/kg, mean ± SD.
The mark [8] stands for this setting: rat, in vivo, po, oil solution, rats, 10 mg CBD, 15 mg other cannabinoids, serum, dose-normalized to 1 mg/kg, mean ± SD.
Where [9] appears, read: rat, in vivo, po, nanoemulsion, rats, mean ± SD.
Setting [10] is: rat, in vivo, po, oil solution, rats, mean ± SD.
Where [11] appears, read: rat, in vivo, po, T1/2, nanoemulsion, rats, mean ± SD.
[12] abbreviates: rat, in vivo, po, T1/2, oil solution, rats, mean ± SD.

This is an account of results in publication PMC12326358, “Effect of Quantitative Structural Properties and Drug Formulation in Four Cannabinoids (Cannabidiol, Cannabigerol, Cannabichromene, and Cannabinol) on Their Lymphatic Transport after Enteral Administration in Rats” (Molecular Pharmaceutics, 2025).

Where two headings read alike, the source gives them in different places.

As usually defined, the AUC(0-inf) is total exposure, with the tail of the curve extrapolated. Low readings indicate less exposure, high ones more exposure. As usually defined, the Cmax is the highest concentration seen after dosing. Broadly, the half-life is the time needed for the level to fall by half in the phase considered. Low values mean fast loss, high ones slow loss. Usually bioavailability stands for dose-corrected exposure relative to a reference, in per cent. Low readings indicate poor availability, high ones good availability. One may read the Tmax as the time from dosing to the highest level.

Molecule `CCCCCc1cc(O)c2c(c1)OC(C)(CCC=C(C)C)C=C2` (centres unmarked) [CBC, cannabichromene] showed a Vd in series [1] (rat, in vivo, iv, 1.5 mg) of 11 ± 2.2 L/kg. In series [1] (rat, in vivo, iv, 1.5 mg), this molecule gave a clearance of 100 mL/min/kg. The values for the area under the curve AUC(0-inf) in series [1] (setting [3]), in series [1] (setting [5]) and in series [1] (setting [6]) were 640 ± 85 ng·h/mL, 117 ± 33 ng·h/mL and 31 ± 23 ng·h/mL, respectively. In addition, the Cmax came out at 935 ± 147 ng/mL in series [1] (setting [3]), 12 ± 2 ng/mL in series [1] (setting [7]) and 2.6 ± 1.5 ng/mL in series [1] (setting [8]). Further, the figures for the half-life in series [1] (setting [4]), in series [1] (setting [11]) and in series [1] (setting [12]) were 2.2 ± 0.4 h, 5.8 ± 1.9 h and 13 ± 19 h, respectively. The bioavailability was found to be 18 ± 5% in series [1] (setting [9]) and 34 ± 18% in series [1] (setting [10]). Moreover, the Tmax in series [1] (setting [9]) stood at 3.6 ± 1.9 h; in series [1] (setting [10]) it was 6 ± 1.3 h. Moreover, the “DLS, 90° size” value amounted to 25 nm in series [2] (cannabinoid 15 mg/ml, 1 day); 25 nm in series [2] (cannabinoid 15 mg/ml, 30 days); 40 nm in series [2] (cannabinoid 30 mg/ml, 1 day); 34 nm in series [2] (cannabinoid 30 mg/ml, 30 days).
In series [1] (rat, in vivo, iv, 1.5 mg), `CCCCCc1cc(O)c(C/C=C(\C)CCC=C(C)C)c(O)c1` [CBG, cannabigerol] showed a Vd of 7.3 ± 2.3 L/kg, a clearance of 98.3 mL/min/kg, an area under the curve AUC(0-inf) of 716 ± 136 ng·h/mL and a Cmax of 1190 ± 286 ng/mL. In addition, in series [1] (rat, in vivo, iv, 1.5 mg, T1/2), the half-life is 2.5 ± 1.6 h. In addition, in series [1] (rat, in vivo, po), the T1/2 was found to be 5.1 ± 4.1 h. Further, the half-life in series [1] (rat, in vivo, po, T1/2) was 3.1 ± 1.3 h. Besides, the “DLS, 90° size” value in series [2] (cannabinoid 15 mg/ml, 1 day) was 31 nm. For the same molecule, the “DLS, 90° size” value in series [2] (cannabinoid 15 mg/ml, 30 days) worked out at 32 nm.
Molecule `CCCCCc1cc(O)c2c(c1)OC(C)(C)c1ccc(C)cc1-2` [CBN, cannabinol] displayed a T1/2 in series [1] (nanoemulsion, IV, rats, 1.5 mg, mean ± SD) of 5.3 ± 1.8 h. In addition, the “F0-inf (absolute oral bioavailability)” value in series [1] (nanoemulsion, PO, rats, mean ± SD) was 9.2 ± 2.6%. Further, the Vd in series [1] (rat, in vivo, iv, 1.5 mg) is 6.5 ± 1.6 L/kg. The molecule further had a clearance in series [1] (rat, in vivo, iv, 1.5 mg) of 50 mL/min/kg. Moreover, the AUC(0-inf) is 1040 ± 212 ng·h/mL in series [1] (setting [3]), 91 ± 19 ng·h/mL in series [1] (setting [5]) and 148 ± 57 ng·h/mL in series [1] (setting [6]). For the same molecule, the Cmax in series [1] (setting [3]) was found to be 1230 ± 252 ng/mL; in series [1] (setting [7]), 12 ± 3 ng/mL; in series [1] (setting [8]), 15.3 ± 4.6 ng/mL. Also, the results for the half-life in series [1] (setting [4]), in series [1] (setting [11]) and in series [1] (setting [12]) were 5 h, 3.5 ± 1.1 h and 4.2 ± 1.7 h, respectively. Further, the bioavailability in series [1] (setting [9]) worked out at 9%; in series [1] (setting [10]) it was 20 ± 7%. The Tmax in series [1] (setting [9]) is 2.2 ± 0.6 h; in series [1] (setting [10]), 6.5 ± 1.2 h. The “DLS, 90° size” value turned out to be 27 nm in series [2] (cannabinoid 15 mg/ml, 1 day); 27 nm in series [2] (cannabinoid 15 mg/ml, 30 days); 67 nm in series [2] (cannabinoid 30 mg/ml, 1 day); 68 nm in series [2] (cannabinoid 30 mg/ml, 30 days).
`C=C(C)[C@@H]1CCC(C)=C[C@H]1c1c(O)cc(CCCCC)cc1O` [CBD, cannabidiol]: the total exposure AUC(0-inf) stood at 256 ± 38 ng·h/mL in series [1] (setting [5]) and 205 ± 57 ng·h/mL in series [1] (setting [6]). Besides, the peak level in series [1] (setting [8]) (Cmax) was 27 ± 10 ng/mL. Moreover, the bioavailability was 45 ± 18% in series [1] (setting [9]) and 52 ± 19% in series [1] (setting [10]). Moreover, the half-life is 4.4 ± 0.8 h in series [1] (setting [11]) and 4.8 ± 0.8 h in series [1] (setting [12]). Also, the Tmax turned out to be 3.2 ± 0.9 h in series [1] (setting [9]) and 6.8 ± 1.9 h in series [1] (setting [10]). Further, the “DLS, 90° size” value was found to be 26 nm in series [2] (cannabinoid 15 mg/ml, 1 day); 26 nm in series [2] (cannabinoid 15 mg/ml, 30 days); 200 nm in series [2] (cannabinoid 30 mg/ml, 1 day); 222 nm in series [2] (cannabinoid 30 mg/ml, 30 days).
